Measured values from patent publication US8541607B2, “Disulfide, sulfide, sulfoxide, and sulfone derivatives of cyclic sugars and uses thereof” (Lacer, S.A., priority 2003, dated 2013).

What was measured:
[1] = system: platelet adhesion to HUVEC activated by LDLmm; test: Inhibition of platelet adhesion to HUVEC activated by LDLmm; type: cell-based, human; conditions: HUVEC activated by LDLmm (50 μg/ml); mean ± s.e.m.
From the text: The methods used in the assays to determine the effect of the compounds on platelet and monocyte adhesion to human endothelial cells are substantially the same as described in the following references: • Del Maschio A. et al., J Cell Biol 1996; 135: 497-510 • Bombeli T. et al., Blood 1999; 93: 3831-3838 • Colomé C. et al; Atherosclerosis 2000; 149: 295-302; and • Martin-Satue M. at al; British Journal of Cancer 1999; 80; 1169-1174
The adhesion of the U937-monocyte cells to confluent human microvasculature endothelial cells (HMEC-1) activated by means of TNF-α (50 ng/ml) and the platelets to human umbilical endothelial cells (HUVEC) were the methods used to determine the inhibitory effect of compounds on cellular adhesion. The adhesion of monocytes previously labeled with calcein-2M (Molecular Probes) to HMEC-1 activated by TNF-α, was assessed by determination of the associated-cell fluorescence. The adhesion of washed human platelets previously labeled with MoAb against CD36-FITC to activated-HUVEC (50 μg/ml of LDL minimally modified, LDLmm) was determined by Laser Scanning Cytometry (LSC, Olympus) determining the associated-cell fluorescence. Results are expressed as the percentage of inhibition respect to control (adhesion of the cells in the absence of compounds).

[2] = system: heart (AVP-induced coronary vasoconstriction); test: In vivo protection against ischemia-reperfusion damage in the heart (arginine-vasopressin induced S-wave depression); conditions: p.o.; for S-wave decrement: 1 h before AVP 0.3 U/kg, vehicle 46.2 ± 4.9
Procedure: Experiments were performed according to the model previously described by Hirata Y at al (Journal of Cardiovascular Pharmacology, 1998, 31: 322-326)
After a food fasting period of 6 hours, animals were divided into groups of at least 8 animals each. Doses of products were given by oral sounding 1 h before the ischemia induction. Animals were anaesthetized with pentobarbital (40 mg/kg, i.p.) and the standard limb lead II electrocardiogram was recorded to detect the S-wave depression. 0.3 U/kg arginine-vasopressin (AVP) (Sigma Chemicals, St Louis, Mo., USA) was injected into the carotid artery to induce vasoconstriction of small coronary arteries and increase in coronary resistance. In all the groups received AVP 60 min after, the test drug. In all groups, after AVP injection of 10 minutes ECG recording was performed.
The results are shown in table 16 and are expressed as S-wave decrements (μvolts).

[3] = system: apo E-deficient mouse (OLA129X C57/BL6J); test: Atherogenesis in apo E-deficient mouse on standard diet; type: in vivo; conditions: 5 mg/Kg/day, 12 weeks
From the text: Preventing and curative effect on atherogenesis of the compounds it is investigated in apo E-deficient mouse fed on standard diet model. Male and female apo E-deficient mouse (OLA129X C57/BL6J) of three months old were fed on standard diet. The control group included 8 males and 7 females mouse, while the treated group consist of 8 males and 7 females mouse. All the animals had similar cholesterol and body weight at the beginning of the experiment. Both the control and the treated groups were studied for 12 weeks. The treated group received 5 mg/Kg/day of the compound (12).
Plasma lipid parameters (total cholesterol, HDL cholesterol and triglycerides) and oxidative stress (measured as 8-iso-prostaglandin F2α levels) were measured at predetermined intervals. After completion of the administration period, the thoracic aorta was isolated and stained to determine the area of the atherosclerotic injuries deposited in the internal wall of the blood vessel in according with the Red Oil method (Lillie, R. D., 1994, Stain Technology, vol. 19, pp 55).

[4] = system: Rats, left carotid artery thrombosis (FeCl3); test: In vivo synergistic antithrombotic effect, FeCl3 carotid artery thrombosis, single drugs and combinations; set-up: species or system rat; conditions: Compound 12 22.3 mg/Kg, oral, acute the day of study
Procedure: The method used is substantially the same as described by Kurz (Kurz K. D., at al., Thromb. Res. 1990, 60: 269-280) and modified by Feuerstein (Feuerstein G. Z., et al., Artherioscler, Thromb. Vasc. Biol. 1999, 19: 2554-25562). […]
Forty-five minutes after dosing administration, rats were anaesthetized with sodium pentobarbital (40 mg/kg, i.p.) and they were placed later dorsally on a heated (37° C.) surgical board.
The left carotid artery was isolated and a Parafilm M sheet (7×20 mm, American National Can) was placed under it. An electromagnetic sounding of flow (Transonic Systems Inc.) was placed on the artery to measure blood flow.
Sixty minutes after product administration, a paper patch saturated with FeCl3 solution (70%) was placed (and not removed for the whole duration of the experiment) on the left carotid artery downstream from the sounding of flow to initiate thrombosis. The blood flow was controlled during the 60 min later to the application of the patch in the artery.
The vessel was considered totally occluded by the thrombus formed when no blood flow was detected (0.0 ml/min). In this model, occlusive thrombus formation usually takes place within 15 to 20 minutes in non-treated animals.
The fractional product concept was used to identify synergy between the compounds. In accordance with this concept, if we consider the full protection of the animal as:
[formula] where A is the rate of animals with thrombotic occlusion in treated group; and B is the rate of animals with thrombotic occlusion in the control group.
For two drugs that act of independent way:
[formula] where A1 is the rate of animals with thrombotic occlusion in the treatment group A1; A2 is the rate of animals with thrombotic occlusion in the treatment group A2; and B is the rate of animals with thrombotic occlusion in the control group
If the protection obtained with the combination of the drugs is higher than the fractional inhibition for two compounds acting independently then synergism is considered to occur.
The results are shown in table 14 and are expressed as rate of animals with thrombotic occlusion in each group.

## CC(=O)S[C@H]1CO[C@H]2[C@@H]1OC[C@H]2O[N+](=O)[O-] [(12), 2-acetylthio-isosorbide-5-mononitrate]
[1]
  % of inhibition to control, platelet adhesion: 87.5% ± 5.1%
[2]; 20 mg/kg
  Protection of S-wave decrement: 52%
  S-wave decrement: 22.6 ± 5.9 μV
[2]; 100 mg/kg
  Protection of S-wave decrement: 81%
  S-wave decrement: 8.6 ± 2.8 μV
[3]
  levels of triglycerides in plasma (in words): decrease
  oxidative stress (in words): decrease
[3]; female, control 0.4 ± 0.1, mean ± s.d.
  HDL-cholesterol, Female: 0.48 ± 0.13 mmol/L
[3]; female, control 1.9 ± 0.6, mean ± s.d.
  Triglycerides, Female: 1.3 ± 0.2 mmol/L
[3]; female, control 9.5 ± 2, mean ± s.d.
  Total cholesterol, Female: 11.3 ± 1.5 mmol/L
[3]; female, oxidative stress, control 182 ± 19, mean ± s.d.
  8-iso-prostaglandin F2α, Female: 99 ± 7 pg/mL
[3]; male, control 0.5 ± 0.15, mean ± s.d.
  HDL-cholesterol, Male: 0.47 ± 0.15 mmol/L
[3]; male, control 2.6 ± 0.6, mean ± s.d.
  Triglycerides, Male: 1.5 ± 0.4 mmol/L
[3]; male, control 14.3 ± 2, mean ± s.d.
  Total cholesterol, Male: 18 ± 3 mmol/L
[3]; male, oxidative stress, control 273 ± 19, mean ± s.d.
  8-iso-prostaglandin F2α, Male: 101 ± 13 pg/mL
[4]
  % of animals protected: (50%)
[4]; control 1
  Rate of animals with thrombotic occlusion: 0.5
